Laboratory results taken from paper PMC8009417, “Selective killing of homologous recombination-deficient cancer cell lines by inhibitors of the RPA:RAD52 protein-protein interaction” (PLoS ONE, 2021).
Values joined by “and” are separate entries in the source; they are usually repeats but may differ in a detail not shown here. Equal values may be shown once.

Experiments:
[1] = biological target: RAD52 ssDNA binding domain; parameters: method as in PMID 26548611; conditions: read-out: IC50, allosteric inhibitor of the RAD52 ssDNA binding domain; cited from earlier work
[2] = biological target: T1, RPA:RAD52 protein-protein interaction (Homo sapiens, UniProt P43351); assay: FluorIA (Fluorescence-based protein-protein Interaction Assay), GFP-RAD52 binding to plate-coated RPA; conditions: polynomial curve fitting; 15 dose concentrations 0.03–500 μM, triplicate; RAD52(1–303) positive control; read-out: EC50 in FluorIA (inhibition of RPA:RAD52 PPI)
T1 construct: made in house
T1 sequence (P43351 1-418): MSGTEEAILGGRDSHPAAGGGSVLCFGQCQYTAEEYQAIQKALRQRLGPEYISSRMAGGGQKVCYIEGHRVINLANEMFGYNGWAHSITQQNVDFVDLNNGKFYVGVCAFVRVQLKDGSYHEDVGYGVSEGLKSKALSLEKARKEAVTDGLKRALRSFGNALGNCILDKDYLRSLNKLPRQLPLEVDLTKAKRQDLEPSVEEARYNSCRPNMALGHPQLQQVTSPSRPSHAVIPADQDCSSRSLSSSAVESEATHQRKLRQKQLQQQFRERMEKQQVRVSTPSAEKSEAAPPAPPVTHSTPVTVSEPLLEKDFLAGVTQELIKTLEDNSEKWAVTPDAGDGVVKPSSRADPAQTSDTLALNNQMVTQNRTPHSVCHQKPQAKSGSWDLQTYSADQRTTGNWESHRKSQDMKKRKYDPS
Method: A newly developed fluorescence-based assay for detecting protein-protein interactions, FluorIA was used to identify SMIs of RPA:RAD52 PPI. The detailed FluorIA protocol is published elsewhere. Briefly, 384-well plates (Thermo Fisher Scientific, #460518) were coated with purified RPA. Then compounds or controls were added and incubated with freshly prepared GFP-RAD52. RAD52(1–303) without GFP-tag and buffer (including DMSO) only were used as controls. Then the relative fluorescence (RFU) was measured using a POLARstar OPTIMA plate reader (BMG LABTECH) on emptied plates at an excitation/emission (for eGFP) of 485/520 nm at 2500 gain setting.
Three chemical libraries the 355-member SelleckChem Kinase Inhibitor Library, the 1200-member Prestwick Chemical Library, and the 100,000-member ChemBridge library were used for the screening. The screening of the SelleckChem Kinase Inhibitor and the Prestwick libraries were performed at 10 and 100 μM each in duplicate. The screening of the ChemBridge library was conducted at 100 μM. […] The statistical criteria for a hit were fully described in Al-Mugotir et al.. Each hit was verified in triplicate at 10 and 100 μM.
The in vitro EC50 value of each hit was determined with FluorIA. The chemicals were serially diluted by two-fold increments from 0.030 to 500 μM and analyzed in triplicate with FluorIA. RAD52(1–303) was used as a positive control and buffer with DMSO was used as a negative control. Candidate SMIs with strong inhibition were purchased, and a 1D NMR analysis was carried out to verify their identities. The eleven candidates SMIs were purchased as follows: 5137134, 5246481, 52614577,5316833, 5373030, and 7623574 from Chembridge HIT2LEAD, 5989499 from Wuxi lab network, 5375405 from Aronis, quinacrine and mitoxantrone from Sigma Aldrich, and doxorubicin from LC labs. D-I03 was purchased from Molport. Their effectiveness in inhibiting the RPA:RAD52 PPI was confirmed after purchase with the FluorIA as described above (S1 Fig).
Supplementary file pone.0248941.s001.tif: S1 Fig Validation experiments of eleven hits with the FlourIA. Sixteen treatment concentrations were used (0.030–500 μM) increasing by two-fold increments of each molecule/drug obtained as a hit in HTS FluorIA. RAD52(1–303) without GFP-tag and buffer (including DMSO) only were used as controls. Percent inhibition was calculated as follows: [(RFUSMI—RFURAD52(1–303)) / (RFUDMSO—RFURAD52(1–303))]*100, where RFU is relative fluorescence unit. An average of triplicate measurements was used. The treatment points for quinacrine and doxorubicin beyond 125 μM were showing characteristics of aggregation and were not used. (TIF) Click here for additional data file.

[3] = tested on: UWB1.289 cells corrected with wild-type BRCA1 gene (BRCA1+); assay: Cell viability assay (PrestoBlue, 72 h), UWB1.289+BRCA1; format: cell-based; conditions: Homo sapiens, UWB1289, estimated from the graphs
Source text: (§1) BRCA1-deficient UWB1.289 cells corrected with wild-type BRCA1 gene (BRCA1+; closed triangle) and parental BRCA1-deficient UWB1.289 (BRCA1-; closed circle). Two PARPi-resistant cell lines derived from UWB1.289, UWB1.289.SYr12 (closed diamond) and UWB1.SYr13 (X), were also examined.
(§2) UWB1.289 (a gift from Dr. Lee Zou, Harvard Medical School, Boston, MA) were derived from a serous ovarian carcinoma with a germline BRCA1 mutation and a deletion of the wild-type allele. […] Two PARP-resistant cell lines, SYr12 and SYr13, were derived from the UWB1.289. The Mammary Epithelial growth media, along with SupplementMix solution for UWB1 cell lines, were obtained from PromoCell GmbH and mixed as described.
(§3) Cells were seeded 5 x 10^3 cells per well in 96-well plates in a 90 μL volume per well one day before treatment. Cells in 96-well plates were incubated with increasing concentrations of the compound or vehicle control (1% DMSO) for 72 hours. Each treatment plate contained nine concentrations of a compound in sextuplicate. Growth inhibition was determined using PrestoBlue reagent (Life Technologies, #A13261). Fluorescent measurements were taken using a Spectramax M5 plate reader (MDS). To assess cells’ replication in the absence of compounds as a control, six wells on each plate were treated with vehicle to be read in triplicate at the initial treatment day (T0) and at 72-hour read (T100).

[4] = tested on: BRCA2-revertant PE01 C4-2 cells (BRCA2+); assay: Cell viability assay (PrestoBlue, 72 h), PE01 C4-2; conditions: Homo sapiens, C4-2, 72 h, read-out: EC50, cell viability
[5] = tested on: BRCA2-deficient PE01 ovarian cancer cells (BRCA2-); assay: Cell viability assay (PrestoBlue, 72 h), PE01; format: cell-based; conditions: Homo sapiens, estimated from the graphs
Method: BRCA2-deficient PE01 cell line (a gift from Dr. Toshiyasu Taniguchi, Tokai University, Japan) were derived from an ovarian cancer patient. BRCA2-proficient “revertant” cell line, C4-2 is one of eight clones derived from PE01 that has acquired resistance to both cisplatin and PARPi due to a secondary mutation that restored the BRCA2 function. PE01 and PE01 C4-2 were grown and maintained in DMEM high glucose (Hyclone) supplemented with 10% Fetal Bovine Serum (FBS, Invitrogen).
as §3

[6] = tested on: PARPi-resistant UWB1.289.SYr12 cells; assay: Cell viability assay (PrestoBlue, 72 h), UWB1.289.SYr12; format: cell-based; conditions: Homo sapiens, estimated from the graphs
Source text: as §1, §2, §3

[7] = tested on: BRCA1-deficient UWB1.289 ovarian cancer cells (BRCA1-); assay: Cell viability assay (PrestoBlue, 72 h), UWB1.289; format: cell-based; conditions: Homo sapiens, UWB1289, estimated from the graphs
Source text: as §1, §2, §3

[8] = tested on: BRCA1-deficient HCC1937 breast cancer cells (empty vector, BRCA1-); assay: Cell viability assay (PrestoBlue, 72 h), HCC1937 with empty vector; format: cell-based; conditions: Homo sapiens, estimated from the graphs
Method: (§4) Fig 2 BRCA1-deficient HCC1937 breast cancer cell line survival assay. BRCA1-deficient HCC1937 cells corrected with wild-type BRCA1 gene (BRCA1+; closed triangle), and with an empty vector (BRCA1-; closed circle) were examined. For each experiment (Figs 2–4), cell lines were treated with nine concentrations of (A) quinacrine, (B) mitoxantrone, and (C) doxorubicin in 96-well culture plates at 5x10^3 cell/well density. Each treatment point was made in sextuplicate. Treated cells were incubated for 72 hours at 37°C before assessing cell viability using PrestoBlue. Data were normalized to vehicle control. The experiment was repeated three times. Error bars indicate the standard deviation.
(§5) The HCC1937 cell line (a gift from Dr. Simon Powell Memorial Sloan Kettering (MSK), New York) was derived from a mammary gland primary ductal carcinoma at the early onset of a tumor. This TNBC patient carried a germline mutation in BRCA1, resulting in carboxy-terminal truncated protein and loss of the second BRCA1 allele. BRCA1-restored and empty vector cell lines were also obtained by transfection of a vector containing a full-length human BRCA1 cDNA or an empty vector, respectively. The HCC1937 cell lines were cultured as described.
as §3

[9] = tested on: PARPi-resistant UWB1.SYr13 cells; assay: Cell viability assay (PrestoBlue, 72 h), UWB1.SYr13; format: cell-based; conditions: Homo sapiens, estimated from the graphs
Source text: as §1, §2, §3

[10] = tested on: HCC1937 cells corrected with wild-type BRCA1 gene (BRCA1+); assay: Cell viability assay (PrestoBlue, 72 h), HCC1937+BRCA1; format: cell-based; conditions: Homo sapiens, estimated from the graphs
Method: as §4, §5, §3

[11] = biological target: RPA, endogenous in U2OS cells (human (endogenous in U2OS)) (UniProt P15927)
RPA, endogenous in U2OS cells (human (endogenous in U2OS)), sequence (P15927 whole entry, looked up): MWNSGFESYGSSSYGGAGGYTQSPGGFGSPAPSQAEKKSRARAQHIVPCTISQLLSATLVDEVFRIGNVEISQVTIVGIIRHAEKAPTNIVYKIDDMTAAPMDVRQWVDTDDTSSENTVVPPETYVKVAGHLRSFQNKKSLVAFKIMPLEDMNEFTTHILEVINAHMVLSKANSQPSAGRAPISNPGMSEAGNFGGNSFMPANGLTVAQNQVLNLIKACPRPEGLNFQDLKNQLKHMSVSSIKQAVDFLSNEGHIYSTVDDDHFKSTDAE

In the case of NC(Cc1cc(O)c(O)cc1O)C(=O)O (racemic) [6-hydroxy-DL-dopa], the IC50 [1] is given as 1.1 µM.
Work on COc1cccc2c1C(=O)c1c(O)c3c(c(O)c1C2=O)C[C@@](O)(C(=O)CO)C[C@@H]3O[C@H]1C[C@H](N)[C@H](O)[C@H](C)O1 [Doxorubicin, doxorubicin] yielded an EC50 [2] of 10.1 µM, an EC50 [3] of 2.5 µM and an EC50 [4] of 0.7 µM. The EC50 [5] was 0.05 µM, the EC50 [6] was 0.8 µM and the EC50 [7] was 0.3 µM. For the same molecule, the EC50 [8] was 0.3 µM, the EC50 [9] was 2.5 µM and the EC50 [10] was 1.5 µM.
For CCN(CC)CCCC(C)Nc1c2ccc(Cl)cc2nc2ccc(OC)cc12 (stereo not shown) [Quinacrine, quinacrine], the EC50 [2] was 97.7 µM, the EC50 [3] was greater than 10 µM and the EC50 [4] was 4.5 µM. It also gave an EC50 [5] of 3.8 µM, an EC50 [6] greater than 10 µM and an EC50 [7] of 5.4 µM. It also gave an EC50 [8] of 1.7 µM, an EC50 [9] greater than 10 µM and an EC50 [10] of 4.6 µM.
Molecule Nc1cc(S(=O)(=O)O)cc2cc(S(=O)(=O)O)cc(O)c12 [compound 5137134] has an EC50 [2] of 105 µM.
In the case of Cc1cc2nc3ccc(N(C)C)cc3nc2cc1N [compound 5316833], the EC50 [2] is reported as 66 µM and 66.2 µM.
With “RAD52, endogenous in U2OS cells (from UniProt P43351 1-418) (natural protein)” the inhibition of single-strand annealing (SA-GFP reporter in U2OS-SA cells, FACS) by mitoxantrone, an inhibitor of the RPA:RAD52 interaction, at 4 nM [11] was 72%.
